Literature values in PMC9826446 (Journal of Bone and Mineral Research, 2022).

How the values were obtained:
[1] = test system: vascular calcification; settings: patients with PXE, phase 2 trial; ref [27]
[2] = test system: ectopic calcification; settings: animal models of PXE; ref [1], [7], [19]
[3] = test system: TNAP; settings: not TNAP‐specific; ref [15], [16]

Row | SMILES | inhibition on TNAP [3] | also measured
1 | CC(O)(P(=O)(O)O)P(=O)(O)O [etidronate] | – | vascular calcification [1]: may reduce vascular calcification
2 | COc1ccc(Cl)cc1S(=O)(=O)Nc1cncc(C(N)=O)c1 [SBI‐425, 5‐((5‐chloro‐2‐methoxyphenyl)sulfonamido)nicotinamide] | – | anticalcification effects [2]: significant anticalcification effects
3 | c1ccc([C@H]2CN3CCSC3=N2)cc1 [levamisole] | only weak inhibition | –
4 | Cn1c(=O)c2[nH]cnc2n(C)c1=O [theophylline] | only weak inhibition | –
